Assay results: ChEMBL document CHEMBL6115029, “Discovery of Daraxonrasib (RMC-6236), a Potent and Orally Bioavailable RAS(ON) Multi-selective, Noncovalent Tri-complex Inhibitor for the Treatment of Patients with Multiple RAS-Addicted Cancers” (J Med Chem, 2025)
pEC50, pIC50: −log10 of the molar value. Calls of active or inactive are those of the source. The calls are words filed in the database; no cut-off is given here.

Legend:
[1] = Inhibition of 6His-tagged KRAS G12V mutant(1 to 169 residues)/GST-tagged GMPPNP-bound BRAF RBD (155 to 229 reisudes)/Cyclophilin A (unknown origin) tri-complex protein-protein interaction incubated for 3 hrs by TR-FERT based disruption assay; parameters: species or system Homo sapiens
[2] = Inhibition of 6His-tagged wildtype KRAS (1 to 169 residues)/GST-tagged GMPPNP-bound BRAF RBD (155 to 229 reisudes)/Cyclophilin A (unknown origin) tri-complex protein-protein interaction incubated for 3 hrs by TR-FERT based disruption assay; parameters: species or system Homo sapiens
[3] = test system: CAPAN-1; experiment: Cytotoxicity against human CAPAN-1 cells harboring KRAS G12V mutant cultured as 2D cells assessed as reduction in cell viability incubated for 120 hrs by CellTiter-Glo luminescence assay; type: functional, cell-based; settings: CAPAN-1, 120 h
[4] = Inhibition of ERK1/2 phosphorylation in human CAPAN-1 cells harboring KRAS G12V mutant incubated for 4 hrs by AlphaLISA assay; type: cell-based; settings: CAPAN-1, 4 h
[5] = Efflux ratio of apparent permeability in human Caco-2 cells at 5 uM incubated for 2 hrs by LC-MS/MS analysis; type: ADME, cell-based
[6] = Lipophilicity, logD of compound at pH 7.4 by Agilent 1290 II uPLC analysis; type: physicochemical; settings: buffer
[7] = Clearance in female BALB/c mouse blood at 1 mg/kg, iv measured after 24 hrs by LC-MS/MS analysis; type: ADME, organism-based
[8] = Oral bioavailability in female BALB/c mouse blood at 10 mg/kg measured after 24 hrs by LC-MS/MS analysis; type: ADME, organism-based
[9] = Oral bioavailability in female BALB/c mouse plasma at 10 mg/kg measured after 24 hrs by LC-MS/MS analysis; type: ADME, organism-based
[10] = Kinetic solubility of compound in PBS at pH 5.0 measured after 5 hrs by UV analysis; type: physicochemical; settings: read-out: Kinetic_solubility
[11] = Volume of distribution at steady state in female BALB/c mouse at 1 mg/kg, iv measured after 24 hrs by LC-MS/MS analysis; type: ADME, organism-based; settings: in vivo, read-out: Vdss
[12] = Half-life in female BALB/c mouse at 10 mg/kg, po measured after 24 hrs by LC-MS/MS analysis; type: ADME, organism-based; settings: in vivo
[13] = Half-life in male Sprague-Dawley rat at 1 mg/kg, iv measured after 24 hrs by LC-MS/MS analysis; type: ADME, organism-based; settings: in vivo
[14] = Half-life in male Sprague-Dawley rat at 60 mg/kg, po measured after 24 hrs by LC-MS/MS analysis; type: ADME, organism-based; settings: in vivo
[15] = Half-life in male Beagle dog at 5 mg/kg, po measured after 24 hrs by LC-MS/MS analysis; type: ADME, organism-based, Canis lupus familiaris; settings: in vivo
[16] = Oral bioavailability in male Beagle dog at 5 mg/kg measured after 24 hrs by LC-MS/MS analysis; type: ADME, organism-based, Canis lupus familiaris; settings: in vivo
[17] = Half-life in male cynomolgus monkey at 1 mg/kg, iv measured after 24 hrs by LC-MS/MS analysis; type: ADME, organism-based, Macaca fascicularis; settings: in vivo
[18] = Oral bioavailability in male cynomolgus monkey at 10 mg/kg measured after 24 hrs by LC-MS/MS analysis; type: ADME, organism-based, Macaca fascicularis; settings: in vivo
[19] = Ratio of drug concentration in mouse blood to plasma at 0.1 uM measured upto 120 mins by LC-MS/MS analysis; type: ADME, cell-free
[20] = test system: NCI-H1975; experiment: Inhibition of ERK1/2 phosphorylation in human NCI-H1975 cells harboring wildtype KRAS incubated for 4 hrs by AlphaLISA assay; type: cell-based
[21] = test system: PSN1; experiment: Inhibition of ERK1/2 phosphorylation in human PSN1 cells harboring KRAS G12R mutant incubated for 4 hrs by AlphaLISA assay; type: cell-based
[22] = test system: NCI-H441; experiment: Inhibition of ERK1/2 phosphorylation in human NCI-H441 cells harboring KRAS G12V mutant incubated for 4 hrs by AlphaLISA assay; type: cell-based
[23] = test system: HCT-116; experiment: Inhibition of ERK1/2 phosphorylation in human HCT-116 cells harboring KRAS G13D mutant incubated for 4 hrs by AlphaLISA assay; type: cell-based
[24] = test system: PSN1; experiment: Cytotoxicity against human PSN1 cells harboring KRAS G12R mutant cultured as 2D cells assessed as inhibition of cell proliferation incubated for 120 hrs by CellTiter-Glo luminescence assay; type: functional, cell-based
[25] = test system: HCT-116; experiment: Cytotoxicity against human HCT-116 cells harboring KRAS G13D mutant cultured as 2D cells assessed as inhibition of cell proliferation incubated for 120 hrs by CellTiter-Glo luminescence assay; type: functional, cell-based
[26] = In vivo inhibition of MAPK signaling pathway in female BALB/c nude mouse xenografted with human MIA PaCa-2 cells harboring KRAS G12C/G12C mutant assessed as reduction in DUSP6 mRNA level in tumor at 25 mg/kg, po administered as single dose and measured after 8 hrs by qPCR analysis relative to control; type: functional
[27] = In vivo inhibition of MAPK signaling pathway in female BALB/c nude mouse xenografted with human MIA PaCa-2 cells harboring KRAS G12C/G12C mutant assessed as reduction in DUSP6 mRNA level in tumor at 10 mg/kg, po administered as single dose and measured after 8 hrs by qPCR analysis relative to control; type: functional
[28] = test system: Mus musculus; experiment: In vivo inhibition of MAPK signaling pathway in female BALB/c nude mouse xenografted with human MIA PaCa-2 cells harboring KRAS G12C/G12C mutant assessed as reduction in DUSP6 mRNA level in tumor at 25 mg/kg, po administered as single dose and measured upto 48 hrs by qPCR analysis; type: functional, organism-based
[29] = test system: Mus musculus; experiment: In vivo inhibition of MAPK signaling pathway in female BALB/c nude mouse xenografted with human MIA PaCa-2 cells harboring KRAS G12C/G12C mutant assessed as reduction in DUSP6 mRNA level in tumor at 3 to 10 mg/kg, po administered as single dose and measured upto 48 hrs by qPCR analysis; type: functional, organism-based; settings: dose 3-10 mg/kg
[30] = test system: MIA PaCa-2; experiment: Antitumor activity against human MIA PaCa-2 cells harboring KRAS G12C/G12C mutant xenografted in female BALB/c mouse model assessed as reduction in tumor volume administered orally as once daily dose for 28 days; type: functional, cell-based; settings: dose 3-25 mg/kg, route po, time 28.0 day
[31] = Toxicity in female BALB/c nude mouse xenografted with human MIA PaCa-2 cells harboring KRAS G12C/G12C mutant assessed as effect on body weight at 25 mg/kg, po administered once daily for 28 days; type: organism-based; settings: in vivo, 672 h, time 28 day
[32] = Toxicity in female BALB/c nude mouse xenografted with human NCI-H1373 cells harboring KRAS G12C/KRAS G12C mutant assessed as effect on body weight at 25 mg/kg, po administered once daily for 28 days; type: organism-based; settings: in vivo, 672 h, time 28 day
[33] = target: Sodium channel protein type 5 subunit alpha (Homo sapiens, UniProt Q14524); experiment: Inhibition of human Nav1.5; type: toxicity
[34] = Mutagenicity in Salmonella typhimurium by Ames test; type: toxicity; settings: salmonella enterica subsp. enterica serovar typhimurium
[35] = Toxicity in human PBL cells in absence of rat S9 fraction by micronucleus assay; type: cell-based

Chain of Sodium channel protein type 5 subunit alpha (Q14524 whole entry): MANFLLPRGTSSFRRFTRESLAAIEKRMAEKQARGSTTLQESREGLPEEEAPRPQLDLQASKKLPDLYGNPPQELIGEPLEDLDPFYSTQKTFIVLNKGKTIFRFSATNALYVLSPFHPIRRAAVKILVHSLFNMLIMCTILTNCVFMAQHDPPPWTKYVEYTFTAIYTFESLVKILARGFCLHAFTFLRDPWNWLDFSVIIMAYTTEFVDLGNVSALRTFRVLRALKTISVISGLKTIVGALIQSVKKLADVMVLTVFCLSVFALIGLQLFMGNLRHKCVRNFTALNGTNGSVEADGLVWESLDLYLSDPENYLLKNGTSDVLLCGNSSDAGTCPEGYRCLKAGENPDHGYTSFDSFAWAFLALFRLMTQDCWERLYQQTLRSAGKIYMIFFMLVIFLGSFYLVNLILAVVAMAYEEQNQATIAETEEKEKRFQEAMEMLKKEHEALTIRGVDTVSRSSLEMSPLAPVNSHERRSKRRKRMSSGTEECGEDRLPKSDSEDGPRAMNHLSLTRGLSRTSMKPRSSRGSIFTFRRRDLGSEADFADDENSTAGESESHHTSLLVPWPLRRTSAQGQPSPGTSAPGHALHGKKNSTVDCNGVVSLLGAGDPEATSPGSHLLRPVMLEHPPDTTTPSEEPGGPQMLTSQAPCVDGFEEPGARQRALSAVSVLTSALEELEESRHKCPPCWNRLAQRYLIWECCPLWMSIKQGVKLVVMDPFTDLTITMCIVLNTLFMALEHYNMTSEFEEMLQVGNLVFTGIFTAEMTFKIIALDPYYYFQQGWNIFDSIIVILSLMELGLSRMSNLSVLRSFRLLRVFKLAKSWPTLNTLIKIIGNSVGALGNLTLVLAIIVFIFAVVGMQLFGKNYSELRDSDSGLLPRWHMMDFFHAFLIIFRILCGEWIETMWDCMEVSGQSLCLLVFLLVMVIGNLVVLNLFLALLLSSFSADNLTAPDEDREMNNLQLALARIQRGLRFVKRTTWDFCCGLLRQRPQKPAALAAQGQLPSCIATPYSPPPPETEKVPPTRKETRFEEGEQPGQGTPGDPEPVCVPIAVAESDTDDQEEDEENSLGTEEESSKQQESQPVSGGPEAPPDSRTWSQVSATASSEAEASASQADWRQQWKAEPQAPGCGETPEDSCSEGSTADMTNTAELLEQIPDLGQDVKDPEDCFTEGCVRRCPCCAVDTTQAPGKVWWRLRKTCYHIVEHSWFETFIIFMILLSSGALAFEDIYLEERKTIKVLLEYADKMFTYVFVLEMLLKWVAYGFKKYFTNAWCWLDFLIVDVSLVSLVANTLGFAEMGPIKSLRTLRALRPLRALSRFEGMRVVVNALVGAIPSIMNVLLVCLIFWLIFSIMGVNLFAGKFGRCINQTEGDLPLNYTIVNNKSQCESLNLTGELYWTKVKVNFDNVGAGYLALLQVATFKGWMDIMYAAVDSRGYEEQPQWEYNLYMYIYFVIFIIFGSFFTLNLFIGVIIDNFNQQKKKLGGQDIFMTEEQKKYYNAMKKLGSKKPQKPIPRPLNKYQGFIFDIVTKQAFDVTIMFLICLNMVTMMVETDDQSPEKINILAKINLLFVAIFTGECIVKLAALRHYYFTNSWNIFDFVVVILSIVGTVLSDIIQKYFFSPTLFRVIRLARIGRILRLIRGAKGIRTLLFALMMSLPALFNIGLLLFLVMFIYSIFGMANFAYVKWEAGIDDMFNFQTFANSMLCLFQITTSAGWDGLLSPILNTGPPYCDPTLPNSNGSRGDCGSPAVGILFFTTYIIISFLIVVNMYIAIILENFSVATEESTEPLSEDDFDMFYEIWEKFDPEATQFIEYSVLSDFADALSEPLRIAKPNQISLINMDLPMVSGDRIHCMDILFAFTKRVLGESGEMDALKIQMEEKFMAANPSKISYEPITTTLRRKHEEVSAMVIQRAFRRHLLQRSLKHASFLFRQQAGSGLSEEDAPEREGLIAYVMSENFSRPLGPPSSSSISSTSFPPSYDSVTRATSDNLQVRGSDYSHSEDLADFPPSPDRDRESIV

`CCn1c(-c2cc(N3CCN(C)CC3)cnc2[C@H](C)OC)c2c3cc(ccc31)-c1csc(n1)C[C@H](NC(=O)[C@H]1C[C@@H]1C)C(=O)N1CCC[C@H](N1)C(=O)OCC(C)(C)C2` gave a pIC50 [1] of 7.32, a pIC50 [2] of 7.04 and a pEC50 [3] of 8.89. It also gave a pEC50 [4] of 9.52, an efflux ratio at 2 h, 5 µM [5] of 21 and a logD [6] of 4.5. The clearance [7] was 8.33 mL/min/kg, the bioavailability [8] was 33% and the bioavailability [9] was 52%. The solubility kinetic at 5 h [10] was > 100 µM, the Vd [11] was 1.3 L/kg and the half-life [12] was 2.4 h. The half-life [13] was 1.7 h, the half-life [14] was 2.8 h and the half-life [15] was 5.3 h. For the same molecule, the bioavailability [16] was 33%, the half-life [17] was 6.2 h and the bioavailability [18] was 24%. For the same molecule, the blood plasma ratio at 2 h, 0.1 µM [19] was 4.2, the inhibition [20] was “Active” and the inhibition [21] was “Active”. The inhibition [22] was “Active”, the inhibition [23] was “Active” and the Activity [24] was “Active”. For the same molecule, the Activity [25] was “Active”, the inhibition in vivo at 25 mg/kg [26] was 98% and the inhibition in vivo at 10 mg/kg [27] was 95%. For the same molecule, the inhibition [28] was “Active”, the inhibition [29] was “Not active; Pathway Reactivation Observed” and the Activity [30] was “Dose-dependent-effect”. The Activity [31] was “Non-toxic”, the Activity [32] was “Non-toxic” and the pIC50 [33] was < 4.52. For the same molecule, the Activity [34] was “Non-toxic” and the Activity [35] was “Non-toxic”.
